In assay [1] the target is hSERT (human serotonin transporter) (Homo sapiens, UniProt P31645, M370L). The experiment in a line: cell-based. Set-up: species or system HEK-293, transiently transfected.
The next assay concerns the target hSERT V367I (Homo sapiens, UniProt P31645, V367I). The assay is described as follows: cell-based. More on the design: species or system HEK-293, transiently transfected.

hSERT (human serotonin transporter), sequence (P31645 whole entry M370L): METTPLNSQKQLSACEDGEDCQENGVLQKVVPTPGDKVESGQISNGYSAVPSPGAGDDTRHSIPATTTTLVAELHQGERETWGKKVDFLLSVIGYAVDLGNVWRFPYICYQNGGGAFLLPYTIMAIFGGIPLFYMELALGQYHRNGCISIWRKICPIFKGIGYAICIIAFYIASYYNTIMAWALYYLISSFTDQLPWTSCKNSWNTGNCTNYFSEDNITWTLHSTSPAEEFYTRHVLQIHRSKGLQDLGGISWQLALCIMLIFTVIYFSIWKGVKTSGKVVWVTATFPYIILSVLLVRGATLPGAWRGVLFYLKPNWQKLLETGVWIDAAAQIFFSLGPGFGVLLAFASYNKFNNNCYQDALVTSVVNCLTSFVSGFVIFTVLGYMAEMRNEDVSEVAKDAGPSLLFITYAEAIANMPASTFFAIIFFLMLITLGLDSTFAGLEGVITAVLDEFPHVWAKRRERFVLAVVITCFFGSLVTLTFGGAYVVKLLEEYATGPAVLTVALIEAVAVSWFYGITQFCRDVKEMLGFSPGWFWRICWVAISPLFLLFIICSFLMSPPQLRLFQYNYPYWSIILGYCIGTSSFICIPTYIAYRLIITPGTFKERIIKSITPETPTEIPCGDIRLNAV
hSERT V367I, sequence (P31645 whole entry V367I): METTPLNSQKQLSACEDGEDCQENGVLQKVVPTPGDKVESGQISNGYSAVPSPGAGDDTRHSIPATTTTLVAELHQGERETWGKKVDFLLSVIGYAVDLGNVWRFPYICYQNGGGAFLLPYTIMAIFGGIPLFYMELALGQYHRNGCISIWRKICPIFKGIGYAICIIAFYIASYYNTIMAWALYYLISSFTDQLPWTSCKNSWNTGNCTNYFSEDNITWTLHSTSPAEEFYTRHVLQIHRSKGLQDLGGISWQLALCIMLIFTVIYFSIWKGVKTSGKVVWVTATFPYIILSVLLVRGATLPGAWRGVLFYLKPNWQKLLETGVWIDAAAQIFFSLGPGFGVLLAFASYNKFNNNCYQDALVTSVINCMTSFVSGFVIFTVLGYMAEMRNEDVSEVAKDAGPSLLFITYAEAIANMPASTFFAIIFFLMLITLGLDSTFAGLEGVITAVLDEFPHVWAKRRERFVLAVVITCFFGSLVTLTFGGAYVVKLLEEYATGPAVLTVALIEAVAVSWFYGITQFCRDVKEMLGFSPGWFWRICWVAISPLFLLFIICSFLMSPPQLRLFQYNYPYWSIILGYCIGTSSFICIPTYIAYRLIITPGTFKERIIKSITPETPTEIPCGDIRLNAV

For the compound `COC(=O)[C@H]1[C@@H](c2ccc(I)cc2)C[C@@H]2CC[C@H]1N2C` [RTI-55], the inhibitory constant (Ki) in assay [1] turned out to be 16 ± 2 nM; on hSERT V367I, 16 ± 6 nM.

Values taken from publication PMC2942994 (Biochemical pharmacology, 2010).
